In ChEMBL document CHEMBL4613301, “Molecular Docking Studies of Royleanone Diterpenoids from Plectranthus spp. as P-Glycoprotein Inhibitors” (ACS Med Chem Lett, 2020):

Legend:
Type in all cases: cell-based
[1] = target: T1, ATP-dependent translocase ABCB1 (Homo sapiens, UniProt P08183); assay: Inhibition of P-gp in human NCI-H460/R cells assessed as mean fluorescence intensity of Rhodamine 123 at 20 uM (reference value: 16.96)
[2] = target: T1, ATP-dependent translocase ABCB1; assay: Inhibition of P-gp in human NCI-H460/R cells assessed as fluorescence activity ratio at 20 uM relative to control
[3] = target: T1, ATP-dependent translocase ABCB1; assay: Ratio of inhibition of P-gp in human NCI-H460/R cells assessed as mean fluorescence intensity at 20 uM relative to control

T1 sequence (P08183 whole entry): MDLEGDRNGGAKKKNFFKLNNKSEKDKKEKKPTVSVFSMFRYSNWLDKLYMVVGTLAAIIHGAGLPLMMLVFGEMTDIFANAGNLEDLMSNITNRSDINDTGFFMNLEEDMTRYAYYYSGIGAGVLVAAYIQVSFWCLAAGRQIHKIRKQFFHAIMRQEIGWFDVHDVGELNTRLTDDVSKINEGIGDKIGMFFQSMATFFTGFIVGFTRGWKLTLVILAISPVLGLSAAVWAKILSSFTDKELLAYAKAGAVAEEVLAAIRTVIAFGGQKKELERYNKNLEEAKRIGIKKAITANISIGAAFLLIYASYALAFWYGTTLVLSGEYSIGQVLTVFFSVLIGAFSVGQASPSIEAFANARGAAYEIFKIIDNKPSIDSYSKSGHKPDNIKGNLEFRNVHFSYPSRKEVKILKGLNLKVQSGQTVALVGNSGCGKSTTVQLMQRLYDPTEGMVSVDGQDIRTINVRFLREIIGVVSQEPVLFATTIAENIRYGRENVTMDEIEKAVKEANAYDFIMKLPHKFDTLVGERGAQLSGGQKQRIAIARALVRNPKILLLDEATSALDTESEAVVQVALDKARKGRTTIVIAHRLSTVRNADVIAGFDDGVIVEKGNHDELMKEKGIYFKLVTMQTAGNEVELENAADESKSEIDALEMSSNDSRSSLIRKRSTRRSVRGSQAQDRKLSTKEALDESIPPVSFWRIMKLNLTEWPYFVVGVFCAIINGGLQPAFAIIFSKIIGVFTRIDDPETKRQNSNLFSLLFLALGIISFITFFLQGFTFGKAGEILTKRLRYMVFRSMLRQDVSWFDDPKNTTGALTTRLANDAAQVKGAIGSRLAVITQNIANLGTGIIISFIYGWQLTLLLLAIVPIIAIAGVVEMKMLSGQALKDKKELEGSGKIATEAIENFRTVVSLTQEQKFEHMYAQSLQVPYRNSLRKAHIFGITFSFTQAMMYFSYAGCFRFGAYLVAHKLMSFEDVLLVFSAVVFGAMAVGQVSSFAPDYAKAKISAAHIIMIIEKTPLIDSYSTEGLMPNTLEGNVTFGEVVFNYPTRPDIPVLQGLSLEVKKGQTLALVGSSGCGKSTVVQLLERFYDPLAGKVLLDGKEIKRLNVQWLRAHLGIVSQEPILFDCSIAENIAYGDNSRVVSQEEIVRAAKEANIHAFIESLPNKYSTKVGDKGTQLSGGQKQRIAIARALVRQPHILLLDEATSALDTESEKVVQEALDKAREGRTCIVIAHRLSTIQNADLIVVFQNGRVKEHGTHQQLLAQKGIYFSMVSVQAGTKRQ

FI [1] | Ratio [2] | Ratio [3] | Compound
36.07 | 2.13 | 26.9 | COc1ccc(CCN(C)CCC[C@](C#N)(c2ccc(OC)c(OC)c2)C(C)C)cc1OC [DEXVERAPAMIL]
35.54 | 2.1 | 26.5 | CC(=O)O[C@H]1C2=C(C(=O)C(OC(=O)c3ccccc3)=C(C(C)C)C2=O)[C@@]2(C)CCCC(C)(C)[C@@H]2[C@@H]1O
28.97 | 1.71 | 21.6 | CC(=O)O[C@H]1C2=C(C(=O)C(OC(=O)c3ccc(Cl)cc3)=C(C(C)C)C2=O)[C@@]2(C)CCCC(C)(C)[C@@H]2[C@@H]1OC(=O)c1ccc(Cl)cc1
